Patent publication US10981864B2, “Crystalline modifications of N-(4,5-bismethanesulfonyl-2-methylbenzoyl)guanidine hydrochloride and N-(4,5-bismethanesulfonyl-2-methylbenzoyl)guanidine salts” (MERCK PATENT GMBH, priority 2016, dated 2021)
“And” between values parts separate entries of the source, which are not always exact repeats. Identical values can stand only once. “Also recorded” adds a separate entry of the source.

Legend:
[1] = target: sodium-hydrogen antiporter 1 (NHE-1) (Homo sapiens, UniProt P19634); conditions: cited from earlier work
sodium-hydrogen antiporter 1 (NHE-1), sequence (P19634 whole entry, species assumed): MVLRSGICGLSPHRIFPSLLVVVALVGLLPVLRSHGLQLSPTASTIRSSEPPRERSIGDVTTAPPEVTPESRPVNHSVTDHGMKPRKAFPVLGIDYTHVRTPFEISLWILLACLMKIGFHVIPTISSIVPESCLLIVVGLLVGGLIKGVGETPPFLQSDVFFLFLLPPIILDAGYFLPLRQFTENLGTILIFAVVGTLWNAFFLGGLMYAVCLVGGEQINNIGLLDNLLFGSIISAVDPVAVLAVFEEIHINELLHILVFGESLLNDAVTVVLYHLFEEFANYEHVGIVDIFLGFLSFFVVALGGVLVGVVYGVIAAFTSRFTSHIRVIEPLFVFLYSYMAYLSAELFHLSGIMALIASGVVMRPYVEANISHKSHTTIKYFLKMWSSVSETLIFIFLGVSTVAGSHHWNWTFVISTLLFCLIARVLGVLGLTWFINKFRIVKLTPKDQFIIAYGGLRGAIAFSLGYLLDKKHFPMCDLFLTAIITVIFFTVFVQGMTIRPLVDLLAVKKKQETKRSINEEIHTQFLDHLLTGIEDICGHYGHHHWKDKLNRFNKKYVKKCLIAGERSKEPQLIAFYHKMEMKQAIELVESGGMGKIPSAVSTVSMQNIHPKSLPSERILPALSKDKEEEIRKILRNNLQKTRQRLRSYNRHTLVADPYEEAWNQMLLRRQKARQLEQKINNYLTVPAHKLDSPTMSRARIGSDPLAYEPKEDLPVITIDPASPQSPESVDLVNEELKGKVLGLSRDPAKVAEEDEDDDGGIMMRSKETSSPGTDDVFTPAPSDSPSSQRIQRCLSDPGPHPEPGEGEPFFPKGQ

[2] = test system: animal models of DMD and dilated cardiomyopathy; conditions: cited from earlier work
human PASMCs = conditions: in vitro; cited from earlier work
SuHx rats = conditions: in vivo; cited from earlier work
[3] = test system: monocrotaline-treated rats; conditions: in vivo; cited from earlier work
[4] = Mini-dissolution in FeSSIF medium (pH 5.0), dissolved quantity by HPLC; type: physicochemical; conditions: for Dissolution levels in FeSSIF pH 5.0: FeSSIF pH 5.0, 37° C.; for Dissolution behavior compared to prior-art form HCl-H1: biorelevant media, Fed-state conditions (FeSSIF, pH 5.0)
Protocol: Approximately 10-12 mg of N-(4,5-bis-methanesulfonyl-2-methyl-benzoyl)guanidine form HCl-H1 (HCl salt hydrate form, prior-art), HCl salt anhydrous forms (forms HCl-A1, HCl-A2, HCl-A3), and novel salt forms [phosphate salt (form Phosphate-NF1), maleate salt (form Maleate-NF2), oxalate salt (form Oxalate-NF1), citrate salt (form citrate-NF1), sulfate salt (form Sulfate-NF3), succinate salt (form Succinate-NF1), malonate salt (form Malonate-NF1), besylate salt (form Besylate-NF1), p-tosylate salt (form Tosylate-NF1), malate salt (form Malate-NF1), fumarate salt (form Fumarate-NF1), tartrate salt (form Tartrate-NF1)] are weighed into 4 mL glass vials, and dispersed in 4 mL FeSSIF medium (pH 5.0, Acetate buffer capacity increased by factor 4 to ensure stable pH conditions over course of dissolution experiments).
All dispersions are agitated at 37° C. for up to 2 hours. At defined time intervals (5 min, 15 min, 60 min, 120 min), 0.4 mL sample aliquots of homogeneous dispersions are withdrawn by a syringe, and filtrated via syringe filter adapters (PTFE, 0.2 μm). Clear filtrates are diluted (1:20) with respective Acetate blank buffer, and diluted samples analyzed by HPLC for dissolved quantities of N-(4,5-bis-methanesulfonyl-2-methyl-benzoyl)-guanidine.

[5] = Water Vapour Sorption isotherm (DVS), hygroscopicity acc. to Ph. Eur.; type: physicochemical; conditions: for Water uptake levels (Water Vapour Sorption): 25° C.; for Tendency to undergo hydrate formation: upon exposure to elevated RH levels
Protocol: As used herein, unless stated otherwise, Water Vapour Sorption isotherm measurements are carried out on a DVS-1 or a DVS-Intrinsic system from SMS.
A second endothermic event occurs at >180° C., which is due to melting of the dehydrated form. This is followed by immediate re-crystallisation (exothermic event), and subsequent melting of the re-crystallized phase at >240° C. […] DSC scan of form HCl-H1 was acquired on a Mettler-Toledo DSC 821 with a heating rate of 5 K/min, using nitrogen purge gas at 50 mL/min. […] Form HCl-H1 can be classified as non-hygroscopic acc. to Ph. Eur. criteria (section 5.11.). […] Water Vapour Sorption isotherm was acquired on a DVS-1 system from SMS. • Dissolution level of form HCl-H1 in Fed-State Simulated Intestinal Fluid [FeSSIF, pH 5.0] at 37° C. was determined to be approx. 1.50 mg/mL (after 15 min), approx. 4.16 mg/mL (after 60 min), and approx. 4.54 mg/mL (after 120 min), respectively (see example 17).

[6] = Thermal behaviour (DSC/TGA), thermal stability; type: physicochemical; conditions: DSC/TGA 5 K/min
Protocol: As used herein, unless stated otherwise, the DSC measurements are carried out using a Mettler-Toledo DSC 821 with a heating rate of 5 K/min, using nitrogen purge gas at 50 mL/min.
As used herein, unless stated otherwise, the TGA measurements are carried out using a Mettler-Toledo TGA 851 with a heating rate of 5 K/min, using nitrogen purge gas at 50 mL/min.

## Cc1cc(S(C)(=O)=O)c(S(C)(=O)=O)cc1C(=O)N=C(N)N [Rimeporide, N-(4,5-bismethanesulfonyl-2-methylbenzoyl)guanidine]
[1]
  Inhibition of NHE-1: potent and selective inhibitor
[2]; animal models of DMD and dilated cardiomyopathy
  Cardioprotective action: good cardioprotective action
[2]; animal models of DMD, skeletal muscles, the heart and the diaphragm
  Long term accumulation of inflammation and fibrosis: prevent against the long term accumulation of inflammation and fibrosis

## N=C(N)NC(=O)c1ccc(N2CCN(C(=O)c3ccc[nH]3)CC2)c(C(F)(F)F)c1 [Sabiporide]
Human PASMCs
  Proliferation and migration of human PASMCs: inhibit proliferation and migration

## CCN(c1nc(N)c(C(=O)NC(=N)N)nc1Cl)C(C)C [EIPA]
Human PASMCs
  Proliferation and migration of human PASMCs: inhibit proliferation and migration
SuHx rats
  Proliferation and migration: inhibit proliferation and migration

## CC(C)c1ccc(C(=O)NC(=N)N)cc1S(C)(=O)=O [cariporide]
[3]
  Development of right heart failure: attenuate the development of right heart failure

## N=C(N)NC(=O)c1nc(Cl)c(N)nc1N [Amiloride]
Human PASMCs
  Proliferation and migration of human PASMCs: inhibit proliferation and migration

## Cc1cc(S(C)(=O)=O)c(S(C)(=O)=O)cc1C(=O)NC(=N)N [Besylate-NF1, N-(4,5-bis-methanesulfonyl-2-methyl-benzoyl)-guanidine]
[4]; 5 min
  Dissolution levels in FeSSIF pH 5.0: 4.059 mg/mL
[4]; 15 min
  Dissolution levels in FeSSIF pH 5.0: 5.57±0.02 mg/mL and 5.570 mg/mL
[4]; 60 min
  Dissolution levels in FeSSIF pH 5.0: 5.57±0.02 mg/mL and 5.570 mg/mL
[4]; 120 min
  Dissolution levels in FeSSIF pH 5.0: 3.87±0.02 mg/mL and 3.873 mg/mL
[4]
  Dissolution behavior compared to prior-art form HCl-H1: improved dissolution behavior
[5]
  Hygroscopicity classification acc. to Ph. Eur. criteria (section 5.11.): slightly hygroscopic
[5]; relative humidity range 0-80% rh
  Water uptake levels (Water Vapour Sorption): 1.0 wt %
[6]
  Thermal stability (mp/dec): > 280 °C

## Cc1cc(S(C)(=O)=O)c(S(C)(=O)=O)cc1C(=O)NC(=N)N [Maleate-NF2, N-(4,5-bis-methanesulfonyl-2-methyl-benzoyl)-guanidine]
[4]; 5 min
  Dissolution levels in FeSSIF pH 5.0: 2.043 mg/mL
[4]; 15 min
  Dissolution levels in FeSSIF pH 5.0: 4.30±0.02 mg/mL and 4.296 mg/mL
[4]; 60 min
  Dissolution levels in FeSSIF pH 5.0: 6.35±0.02 mg/mL and 6.350 mg/mL
[4]; 120 min
  Dissolution levels in FeSSIF pH 5.0: 6.35±0.02 mg/mL and 6.350 mg/mL
[4]
  Dissolution behavior compared to prior-art form HCl-H1: improved dissolution behavior
[5]
  Hygroscopicity classification acc. to Ph. Eur. criteria (section 5.11.): non-hygroscopic; also recorded: slightly hygroscopic
  Tendency to undergo hydrate formation: no tendency to undergo hydrate formation
[5]; entire relative humidity range 0-98% rh
  Water uptake levels (Water Vapour Sorption): ≤ 0.3 wt %
[6]
  Thermal stability (mp/dec): > 200 °C

## Cc1cc(S(C)(=O)=O)c(S(C)(=O)=O)cc1C(=O)NC(=N)N [Phosphate-NF1, N-(4,5-bis-methanesulfonyl-2-methyl-benzoyl)-guanidine]
[4]; 5 min
  Dissolution levels in FeSSIF pH 5.0: 3.373 mg/mL
[4]; 15 min
  Dissolution levels in FeSSIF pH 5.0: 5.92±0.02 mg/mL and 5.919 mg/mL
[4]; 60 min
  Dissolution levels in FeSSIF pH 5.0: 6.35±0.02 mg/mL and 6.345 mg/mL
[4]; 120 min
  Dissolution levels in FeSSIF pH 5.0: 6.35±0.02 mg/mL and 6.345 mg/mL
[4]
  Dissolution behavior compared to prior-art form HCl-H1: improved dissolution behavior
[5]
  Hygroscopicity classification acc. to Ph. Eur. criteria (section 5.11.): slightly hygroscopic
  Tendency to undergo hydrate formation: no tendency to undergo hydrate formation
[5]; relative humidity range 0-90% rh
  Water uptake levels (Water Vapour Sorption): ≤ 1.0 wt %
[6]
  Thermal stability (mp/dec): > 230 °C
